Experimental data from US20250049679A1, “FORMULATIONS OF ERIODICTYOL” (DEBUT BIOTECHNOLOGY, INC., priority 2023, published 2025).
Entries after “also recorded” stand apart in the source; their conditions may differ.

Assays:
[1] = tested on: ICR mice; details: mouse skin; Park et al. 2013; cited from earlier work
[2] = DPPH antioxidant activity assay (organic medium); format: biochemical; details: for % Radical Inhibition: DPPH
Text: The 2,2-diphenyl-1-picrylhydrazyl (DPPH) antioxidant assay is designed to evaluate the antioxidant activity of compositions comprising eriodictyol in an organic medium. […] In the presence of an antioxidant DPPH is reduced, resulting in the formation of a colorless solution. Reduction of absorbance at 517 nm is standardized to solvent control as an indication of DPPH scavenging.

[3] = tested on: melanoma cells; details: cited from earlier work
[4] = tested on: Keratinocytes; details: skin; cited from earlier work
[5] = Solubility of eriodictyol in solvents; format: physicochemical
[6] = target: TRPV1 receptors (Homo sapiens, UniProt Q8NER1); details: acting on TRPV1 receptors; Deng et al. 2020; cited from earlier work
[7] = Stability of eriodictyol in dimethyl isosorbide; format: physicochemical
Text: Thus, the compositions of the invention will also be stable for storage for at least 2 years under ambient conditions.

[8] = ABTS antioxidant assay (aqueous medium); format: biochemical; details: for % Radical Inhibition: ABTS
Text: ABTS+ solution is generated as a free radical and used to measure relative ability of a compound to scavenge free radicals. Reduction of the absorbance at 734 nm was standardized to solvent control as an indication of ABTS+ scavenging.

[9] = Glycation inhibition assay; format: biochemical; details: for % Enzyme Inhibition: glycation
Protocol: The assay was conducted to evaluate the glycation inhibition activity of compositions comprising eriodictyol. Nonenzymatic glycation can occur when glucose reacts with proteins, forming a Schiff base intermediate that subsequently undergoes Amadori rearrangement to form glycosylated proteins, when they react with skin proteins to form Advanced Glycation End products (AGE). AGE formation can result in loss of skin elasticity and impaired cellular function. The glycation inhibition ability of a compound is measured by change in fluorescence at excitation/emission of 360 nm/420 nm relative to solvent control.

[10] = target: tyrosinase (Mus musculus, UniProt P11344); details: cited from earlier work
[11] = tested on: MMP10 (matrix metallopeptidase 10); assay: Gene modulation; format: cell-based
Text: (§1) Table 9, provided below, incorporates the gene modulation data for formulations comprising eriodictyol.

[12] = tested on: ALDH1A3 (aldehyde dehydrogenase 1 family member A3); assay: Gene modulation; format: cell-based
Text: as §1

[13] = tested on: THBS1 (thrombospondin 1); assay: Gene modulation; format: cell-based
Text: as §1

[14] = tested on: IL6 (Interleukin 6); assay: Gene modulation; format: cell-based
Text: as §1

[15] = tested on: KCTD4 (potassium channel tetramerization domain containing 4); assay: Gene modulation; format: cell-based
Text: as §1

[16] = tested on: FST (follistatin); assay: Gene modulation; format: cell-based
Text: as §1

[17] = tested on: FN1 (fibronectin 1); assay: Gene modulation; format: cell-based
Text: as §1

[18] = tested on: SLC13A5 (Solute carrier family 13 member 5); assay: Gene modulation; format: cell-based
Text: as §1

[19] = tested on: TNF (Tumor Necrosis Factor); assay: Gene modulation; format: cell-based
Text: as §1

[20] = tested on: MMP1 (matrix metallopeptidase 1); assay: Gene modulation; format: cell-based
Text: as §1

[21] = tested on: TOP2A (DNA topoisomerase II alpha); assay: Gene modulation; format: cell-based
Text: as §1

[22] = tested on: ATP12A (ATPase H+/K+ transporting non-gastric alpha2 subunit); assay: Gene modulation; format: cell-based
Text: as §1

[23] = tested on: IL24 (Interleukin 24); assay: Gene modulation; format: cell-based
Text: as §1

[24] = tested on: PPFIA4 (PTPRF interacting protein alpha 4); assay: Gene modulation; format: cell-based
Text: as §1

[25] = tested on: TFPI2 (tissue factor pathway inhibitor 2); assay: Gene modulation; format: cell-based
Text: as §1

[26] = tested on: MMP9 (Matrix Metallopeptidase 9); assay: Gene modulation; format: cell-based
Text: as §1

[27] = tested on: MKI67 (marker of proliferation Ki-67); assay: Gene modulation; format: cell-based
Text: as §1

[28] = tested on: IL23A (Interleukin 23); assay: Gene modulation; format: cell-based
Text: as §1

[29] = tested on: MMP3 (Matrix Metallopeptidase 3); assay: Gene modulation; format: cell-based
Text: as §1

[30] = target: T1, human neutrophil elastase (Homo sapiens, UniProt P08246); assay: Elastase enzyme inhibition; format: biochemical
T1 sequence (P08246 30-267): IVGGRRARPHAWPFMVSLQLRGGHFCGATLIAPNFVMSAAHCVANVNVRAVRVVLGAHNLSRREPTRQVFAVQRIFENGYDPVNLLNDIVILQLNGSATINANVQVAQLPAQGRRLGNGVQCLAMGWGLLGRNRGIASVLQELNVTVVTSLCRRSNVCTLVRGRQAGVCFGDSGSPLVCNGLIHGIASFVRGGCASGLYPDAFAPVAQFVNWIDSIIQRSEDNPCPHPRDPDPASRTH
Protocol: The assay was conducted to evaluate the elastase enzyme inhibition activity of compositions comprising eriodictyol. Neutrophil infiltration and neutrophil elastase are both increased in the skin in response to UV stress. […] Therefore, inhibition of this enzyme, particularly in combination with antioxidant activity, is effective in delaying wrinkle development and aiding in maintaining skin integrity. This assay is measures release of 4-nitroaniline from an Me-Suc-[…] by human neutrophil elastase and can be quantified at 405 nm by comparing to solvent control.

[31] = tested on: macrophage cells; details: cited from earlier work
[32] = tested on: Nrf2/HO-1 pathway; details: mice, acting on the Nrf2/HO-1 pathway; Li et al. 2022; cited from earlier work

tyrosinase, sequence (P11344 19-533): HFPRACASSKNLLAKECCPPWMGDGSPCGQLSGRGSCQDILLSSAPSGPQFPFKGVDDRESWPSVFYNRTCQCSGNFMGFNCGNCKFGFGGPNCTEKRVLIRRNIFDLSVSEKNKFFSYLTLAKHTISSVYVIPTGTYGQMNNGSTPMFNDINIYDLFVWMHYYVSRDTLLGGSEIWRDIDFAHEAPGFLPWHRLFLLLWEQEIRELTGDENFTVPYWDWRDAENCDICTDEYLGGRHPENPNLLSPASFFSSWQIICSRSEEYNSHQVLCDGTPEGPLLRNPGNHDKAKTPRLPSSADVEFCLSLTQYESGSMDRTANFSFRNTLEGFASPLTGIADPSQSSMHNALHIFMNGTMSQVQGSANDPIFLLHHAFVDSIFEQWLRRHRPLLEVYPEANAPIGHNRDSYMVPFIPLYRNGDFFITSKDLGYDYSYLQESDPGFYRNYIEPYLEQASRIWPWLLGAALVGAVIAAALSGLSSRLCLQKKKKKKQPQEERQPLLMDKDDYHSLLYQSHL
TRPV1 receptors, sequence (Q8NER1 whole entry): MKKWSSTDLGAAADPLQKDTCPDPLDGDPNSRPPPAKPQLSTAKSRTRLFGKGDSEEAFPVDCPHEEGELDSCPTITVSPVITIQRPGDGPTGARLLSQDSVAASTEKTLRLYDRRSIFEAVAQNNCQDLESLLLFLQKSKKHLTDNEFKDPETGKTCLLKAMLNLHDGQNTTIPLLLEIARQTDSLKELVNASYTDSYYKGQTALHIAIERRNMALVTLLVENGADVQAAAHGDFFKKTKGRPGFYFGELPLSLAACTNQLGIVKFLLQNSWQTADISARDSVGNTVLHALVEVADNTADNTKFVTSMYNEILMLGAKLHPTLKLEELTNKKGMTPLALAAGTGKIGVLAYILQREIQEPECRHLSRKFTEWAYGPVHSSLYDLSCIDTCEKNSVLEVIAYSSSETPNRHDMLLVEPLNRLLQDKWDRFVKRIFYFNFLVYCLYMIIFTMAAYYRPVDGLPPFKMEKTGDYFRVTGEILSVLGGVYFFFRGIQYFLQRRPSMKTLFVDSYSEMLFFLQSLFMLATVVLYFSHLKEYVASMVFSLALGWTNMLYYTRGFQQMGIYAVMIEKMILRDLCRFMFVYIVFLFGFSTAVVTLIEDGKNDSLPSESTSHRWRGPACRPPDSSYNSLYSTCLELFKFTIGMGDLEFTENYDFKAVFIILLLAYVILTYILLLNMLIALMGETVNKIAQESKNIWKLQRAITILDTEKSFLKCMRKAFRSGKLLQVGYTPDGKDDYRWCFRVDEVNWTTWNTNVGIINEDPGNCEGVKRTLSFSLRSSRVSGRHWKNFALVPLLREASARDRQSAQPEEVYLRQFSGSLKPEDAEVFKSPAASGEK

For `O=C1C[C@@H](c2ccc(O)c(O)c2)Oc2cc(O)cc(O)c21` [eriodictyol], the “Symptoms of atopic dermatitis” value [1] is given as “alleviating symptoms of atopic dermatitis”, the “% Radical Inhibition” value ([2]; eriodictyol 0.00007 % w/w) is given as 21.22% and the “% Radical Inhibition” value ([2]; eriodictyol 0.00046 % w/w) is given as 81.45%. For the same molecule, the “% Radical Inhibition” value ([2]; eriodictyol 0.00278 % w/w) was 81.95%, the IC50 antioxidant activity ([2]; organic solvent system, calculated) was 0.0002 % w/w and the “Lowest concentration demonstrating antioxidant activity” value ([2]; organic solvent systems) was 0.00007 % w/w. The Melanogenesis [3] was “decreases melanogenesis”, the “Protection from UVA-induced photodamage and apoptosis” value [4] was “protecting skin from UVA-induced photodamage and apoptosis” and the “Solubility (% w/w)” value ([5]; in Caprylic/Capric Triglyceride) was “only minimally soluble; also recorded: Not soluble”. The “Solubility (% w/w)” value ([5]; in Helianthus Annuus (Sunflower) Seed Oil) was “insoluble; also recorded: Not soluble”, the “Solubility (% w/w)” value ([5]; in Pentylene Glycol) was “only minimally soluble; also recorded: Not soluble” and the Solubility ([5]; in oil) was “poorly soluble or insoluble”. The Solubility ([5]; in water) was “poorly soluble or insoluble”, the Neuroinflammation and hypererythema [6] was “reduces neuroinflammation and relieves hypererythema” and the “30 day % remaining” value ([7]; 4 C.) was 104.66%. For the same molecule, the “90 day % remaining” value ([7]; 4 C.) was 97.15%, the “30 day % remaining” value ([7]; 25 C.) was 100.78% and the “90 day % remaining” value ([7]; 25 C.) was 91.72%. The “180 day % remaining” value ([7]; 25 C.) was 90.30%, the “30 day % remaining” value ([7]; 40 C.) was 93.53% and the “90 day % remaining” value ([7]; 40 C.) was 98.06%. For the same molecule, the “30 day % remaining” value ([7]; 50 C.) was 95.73%, the “% Radical Inhibition” value ([8]; eriodictyol 0.00016 % w/w) was 11.00% and the “% Radical Inhibition” value ([8]; eriodictyol 0.0008 % w/w) was 58.72%. For the same molecule, the “% Radical Inhibition” value ([8]; eriodictyol 0.004 % w/w) was 92.97%, the IC50 antioxidant activity ([8]; aqueous solvent system, calculated) was 0.00062 % w/w and the “Lowest concentration demonstrating antioxidant activity” value ([8]; aqueous systems) was 0.00016 % w/w. The “Lowest concentration inhibiting glycation” value [9] was 0.002 % w/w, the IC50 glycation inhibition ([9]; calculated) was 0.0088 % w/w and the “% Enzyme Inhibition” value ([9]; eriodictyol 0.002 % w/w) was 38.43%. For the same molecule, the “% Enzyme Inhibition” value ([9]; eriodictyol 0.007 % w/w) was 86.18%, the “% Enzyme Inhibition” value ([9]; eriodictyol 0.022 % w/w) was 90.26% and the Tyrosinase inhibition [10] was “inhibiting tyrosinase”. For the same molecule, the “Treatment (gene expression level)” value ([11]; MMP10) was 106.9, the “Fold Change” value ([11]; MMP10, treatment vs control) was −24.3 and the “Treatment (gene expression level)” value ([12]; ALDH1A3) was 168.0. For the same molecule, the “Fold Change” value ([12]; ALDH1A3, treatment vs control) was −9.8, the “Treatment (gene expression level)” value ([13]; THBS1) was 344.3 and the “Fold Change” value ([13]; THBS1, treatment vs control) was −16.0. For the same molecule, the “Treatment (gene expression level)” value ([14]; IL6) was 1.2, the “Fold Change” value ([14]; IL6, treatment vs control) was −19.7 and the “Treatment (gene expression level)” value ([15]; KCTD4) was 36.4. For the same molecule, the “Fold Change” value ([15]; KCTD4, treatment vs control) was −14.9, the “Treatment (gene expression level)” value [16] was 96.4 and the “Fold Change” value ([16]; treatment vs control) was −9.8. The “Treatment (gene expression level)” value ([17]; FN1) was 146.9, the “Fold Change” value ([17]; FN1, treatment vs control) was −12.1 and the “Treatment (gene expression level)” value ([18]; SLC13A5) was 5.9. The “Fold Change” value ([18]; SLC13A5, treatment vs control) was −13.9, the “Treatment (gene expression level)” value [19] was 0.0 and the “Fold Change” value ([19]; treatment vs control) was −256.0. The “Treatment (gene expression level)” value ([20]; MMP1) was 972.9, the “Fold Change” value ([20]; MMP1, treatment vs control) was −11.3 and the “Treatment (gene expression level)” value [21] was 37.6. The “Fold Change” value ([21]; treatment vs control) was −18.4, the “Treatment (gene expression level)” value [22] was 76.4 and the “Fold Change” value ([22]; treatment vs control) was −11.3. For the same molecule, the “Treatment (gene expression level)” value ([23]; IL24) was 1.2, the “Fold Change” value ([23]; IL24, treatment vs control) was −73.5 and the “Treatment (gene expression level)” value ([24]; PPFIA4) was 628.6. The “Fold Change” value ([24]; PPFIA4, treatment vs control) was 27.9, the “Treatment (gene expression level)” value ([25]; TFPI2) was 34.1 and the “Fold Change” value ([25]; TFPI2, treatment vs control) was −17.1. The “Treatment (gene expression level)” value ([26]; MMP9) was 527.6, the “Fold Change” value ([26]; MMP9, treatment vs control) was −8.6 and the “Treatment (gene expression level)” value ([27]; MKI67) was 78.7. The “Fold Change” value ([27]; MKI67, treatment vs control) was −10.6, the “Treatment (gene expression level)” value [28] was 5.9 and the “Fold Change” value ([28]; treatment vs control) was −6.1. For the same molecule, the “Treatment (gene expression level)” value ([29]; MMP3) was 8.2, the “Fold Change” value ([29]; MMP3, treatment vs control) was −48.5 and the “Lowest concentration inhibiting elastase enzyme activity” value [30] was 0.008 % w/w. For the same molecule, the “IC50 elastase enzyme inhibition” value ([30]; calculated) was 0.107 % w/w, the inhibition at 0.008 % strength ([30]; elastase, eriodictyol 0.008 % w/w) was 17.6% and the inhibition at 0.04 % strength ([30]; elastase, eriodictyol 0.04 % w/w) was 23.1%. For the same molecule, the inhibition at 0.2 % strength ([30]; elastase, eriodictyol 0.2 % w/w) was 58.1%, the “Anti-inflammatory activity: inflammatory markers” value [31] was “decrease inflammatory markers” and the Cognitive decline [32] was “decreases cognitive decline”.
